Columns and labels:
RAW 264.7 macrophages = assay: Electrophoretic DNA fragmentation assay on Parylene A substrates; assay type: cell-based, murine
Excerpt: Substrate Preparation. Plain glass slides were sterilized in 70% ethanol and pre-treated with A-174 Silane (SCS COATINGS, Indianapolis, Ind.) adhesion promoter according to manufacturer's protocol. Approximately 20 grams of Parylene A (UNIGLOBE KISCO, White Plains, N.Y.) was loaded into a Parylene deposition system (PDS) 2010 LABCOTER® 2 (SCS COATINGS.) The deposition took place under previously indicated conditions (Kramer et al. 1984, 22, 475, Yang et al. Journal of Crystal Growth 1998, 183, 385, herein incorporated by reference in their entireties). Application of drug to the base layer of Parylene A was accomplished via desiccation of 100 μg dexmnethasone (SIGMA ALDRICH, St Louis, Mo.), or 25 μg doxorubicin (U.S. PHARMACOPIA, Rockville, Md.) under a laminar flow hood. A second layer of 150 mg of Parylene A was deposited over the drug films to produce the eluting layer.
Cell Culture Conditions. Macrophage cell line RAW 264.7 (AICC Manassas, Va.) cells were grown in DMEM media ([…] Inc, Hemdon, Va.) supplemented with 10% FBS (AICC) and 1% Penicillin/Streptomycin (LONZA, Walkersville, Md.). Investigation of inflammation pathways utilized lipo-polysacchmide 5 ng/ml (SIGMA ALDRICH) and resultant expression of IL-6 and TNF-α genes. Analysis of cellular apoptosis was accomplished using agarose electrophoresis of DNA fragmentation.
Electrophoretic Assay. […]

[1] = test system: RAW 264.7 murine macrophages; assay: DNA fragmentation assay on DOX-ND Parylene C devices; assay type: cell-based; settings: 16 and 20 hours, DOX positive control 2.5 μg/mL
Protocol: Materials and Device Fabrication. A conformal 3 g base layer of Parylene C was deposited on pre-cut 2.5 cm×2.5 cm glass slides with a […] COATING SYSTEMS (SCS) PDS 2010 LABCOATER (SCS, Indianapolis, Ind.). The Parylene layer was oxidized via oxygen plasma treatment in a HARRICK Plasma Cleaner/Sterilizer (Ithaca, N.Y.) at 100 W for one minute. A DOX-ND solution was then added to the base layer so that the final DOX-ND concentration in solution was 6.6 μg/ml. Subsequently, solvent evaporation occurred in isolation at room temperature. Following DOX-ND deposition, an ultra-thin 0.15 g palylene C layer was deposited as an elution-limiting and control element. The final layer of Parylene C was treated with oxygen plasma at 100 W for one minute. Parylene C was pyrolized into a gaseous monomer at 690° C., and deposited at room temperature under vacuum conditions for all depositions. The preceding parameters apply to devices fabricated for spectroscopy studies. The present invention is not limited to these parameters. The concentration of DOX-ND was adjusted for devices used in the DNA fragmentation assay so that the final DOX-ND concentration in solution was 33 μg/ml.
DNA Fragmentation Assay. […]

[2] = Spectroscopic analysis of DOX elution from Parylene A bi-layer; assay type: physicochemical; settings: PBS
Protocol: Spectroscopy Analysis. […] Samples were placed in a 12 well plate immersed in 1.0 ml of PBS for 10 min, 20 min, 40 min, 1 hour, 4 hour, and 24 hour increments. After each time point the solution was removed and the drug eluting glass disks were transferred to a vacant well and replenished with […] of PBS. Remaining solutions were analyzed in a DU Series 700 UV-Vis Scanning Spectrophotometer (BECKMAN COULTER, Fullerton, Calif.).

[3] = PBS compared with water; Pierstorff et al. 2008; cited from earlier work

release of DOX, additive spectroscopic scans ([2]; control: DOX applied to a base layer of Parylene A): complete release of DOX | release of DOX, additive spectroscopic scans ([2]; pinhole sample: DOX between Parylene A layers): gradual release of DOX
SMILES: COc1cccc2c1C(=O)c1c(O)c3c(c(O)c1C2=O)C[C@@](O)(C(=O)CO)C[C@@H]3O[C@H]1C[C@H](N)[C@H](O)[C@H](C)O1 [DOX, doxorubicin]
DNA fragmentation (apoptosis), electrophoretic gel (RAW 264.7 macrophages): fragmentation of DNA indicative of cells actively undergoing apoptosis | DNA fragmentation / onset of apoptosis [1]: rigorous DNA fragmentation | solubility [3]: less soluble in PBS

From patent US10799593B2, “Nanodiamond particle complexes” (priority 2008, dated 2020)
